From article PMC11435058, “Synthesis of New Thiazole-Privileged Chalcones as Tubulin Polymerization Inhibitors with Potential Anticancer Activities” (Pharmaceuticals, 2024)

Columns and labels:
OVCAR-4 = assay: NCI-60 anticancer screen (SRB; single dose and five doses); details: Homo sapiens
M14 = assay: as above; details: Homo sapiens
OVCAR-3 = assay: cells; details: Homo sapiens
SK-OV-3 = assay: NCI-60 anticancer screen (SRB; single dose and five doses); details: Homo sapiens
SF-268 = assay: as above; details: Homo sapiens
786-0 = assay: as above; details: Homo sapiens
MALME-3M = assay: as above; details: Homo sapiens
UO-31 = assay: as above; details: Homo sapiens
HOP-62 = assay: as above; details: Homo sapiens
MDA-MB-435 = assay: as above; details: Homo sapiens
RXF 393 = assay: as above; details: Homo sapiens
MDA-MB-231/ATCC = assay: as above; details: Homo sapiens
SNB-75 = assay: as above
BT-549 = assay: as above; details: Homo sapiens
RPMI-8226 = assay: as above; details: Homo sapiens
TK-10 = assay: as above; details: Homo sapiens
HCT-15 = assay: as above; details: Homo sapiens
A549/ATCC = assay: as above; details: Homo sapiens
NCI-H522 = assay: as above; details: Homo sapiens
NCI-H322M = assay: as above; details: Homo sapiens
CAKI-1 = assay: as above; details: Homo sapiens
SW-620 = assay: as above; details: Homo sapiens
HS 578T = assay: as above; details: Homo sapiens
U251 = assay: as above; details: Homo sapiens
SK-MEL-2 = assay: as above; details: Homo sapiens
SF-539 = assay: as above; details: Homo sapiens
SR = assay: as above; details: Homo sapiens
NCI-H226 = assay: as above; details: Homo sapiens
SNB-19 = assay: cells; details: Homo sapiens
[1] = 48 h, read-out: Growth Percentage

Cc1[nH]c(=S)sc1C(=O)/C=C/c1cccc([N+](=O)[O-])c1 [2h, (E)-1-(4-Methyl-2-Thioxo-2,3-Dihydrothiazol-5-yl)-3-(3-Nitrophenyl)Prop-2-En-1-One]
GI50 (OVCAR-4; OVCAR-4): 11 µM
IC50 (OVCAR-4; OVCAR-4): 20.4 µM
activity at 10 µM (OVCAR-4; OVCAR-4, 48 h, read-out: Growth Percentage): 13.1%
CC50 (OVCAR-4; OVCAR-4, read-out: LC50): 51.3 µM
IC (TGI) (OVCAR-4; OVCAR-4, read-out: TGI): 24 µM
GI50 (M14; M14): 7.08 µM
IC50 (M14; M14): 11.8 µM
activity at 10 µM (M14; M14, 48 h, read-out: Growth Percentage): 1.86%
CC50 (M14; M14, read-out: LC50): 83.2 µM
IC (TGI) (M14; M14, read-out: TGI): 25.7 µM
GI50 (OVCAR-3; OVCAR-3): 2400 nM
activity at 10 µM (OVCAR-3; OVCAR-3, 48 h, read-out: Growth Percentage): -79.5%
IC50 (OVCAR-3; OVCAR-3, five-dose, Ovarian Cancer OVCAR-3): 4.37 µM
CC50 (OVCAR-3; OVCAR-3, read-out: LC50): 24 µM
IC (TGI) (OVCAR-3; OVCAR-3, read-out: TGI): 6.46 µM
GI50 (SK-OV-3; SK-OV-3): 5.89 µM
IC50 (SK-OV-3; SK-OV-3): 15.1 µM
activity at 10 µM (SK-OV-3; SK-OV-3, 48 h, read-out: Growth Percentage): 44.6%
CC50 (SK-OV-3; SK-OV-3, read-out: LC50): 45.7 µM
IC (TGI) (SK-OV-3; SK-OV-3, read-out: TGI): 18.6 µM
GI50 (SF-268; SF-268): 10.5 µM
IC50 (SF-268; SF-268): 19.1 µM
activity at 10 µM (SF-268; SF-268, 48 h, read-out: Growth Percentage): 27.5%
CC50 (SF-268; SF-268, read-out: LC50): 57.5 µM
IC (TGI) (SF-268; SF-268, read-out: TGI): 24.6 µM
GI50 (786-0; 786-0): 3.98 µM
IC50 (786-0; 786-0): 6.31 µM
activity at 10 µM (786-0; 786-0, 48 h, read-out: Growth Percentage): -10.8%
CC50 (786-0; 786-0, read-out: LC50): 50.1 µM
IC (TGI) (786-0; 786-0, read-out: TGI): 15.8 µM
GI50 (MALME-3M): 12.3 µM
IC50 (MALME-3M): 24.6 µM
activity at 10 µM (MALME-3M; [1]): -42.9%
CC50 (MALME-3M; read-out: LC50): 55 µM
IC (TGI) (MALME-3M; read-out: TGI): 26.3 µM
GI50 (UO-31; UO-31): 3.89 µM
IC50 (UO-31; UO-31): 10.7 µM
activity at 10 µM (UO-31; UO-31, 48 h, read-out: Growth Percentage): -89.6%
CC50 (UO-31; UO-31, read-out: LC50): 43.6 µM
IC (TGI) (UO-31; UO-31, read-out: TGI): 17 µM
GI50 (HOP-62; HOP-62): 3.98 µM
IC50 (HOP-62; HOP-62): 6.76 µM
activity at 10 µM (HOP-62; HOP-62, 48 h, read-out: Growth Percentage): 0.68%
CC50 (HOP-62; HOP-62, read-out: LC50): 40.7 µM
IC (TGI) (HOP-62; HOP-62, read-out: TGI): 12.3 µM
GI50 (MDA-MB-435; MDA-MB-435): 4.57 µM
IC50 (MDA-MB-435; MDA-MB-435): 7.41 µM
activity at 10 µM (MDA-MB-435; MDA-MB-435, 48 h, read-out: Growth Percentage): -37%
CC50 (MDA-MB-435; MDA-MB-435, read-out: LC50): 44.7 µM
IC (TGI) (MDA-MB-435; MDA-MB-435, read-out: TGI): 17 µM
GI50 (RXF 393; RXF 393): 10.2 µM
IC50 (RXF 393; RXF 393): 24.6 µM
activity at 10 µM (RXF 393; RXF 393, 48 h, read-out: Growth Percentage): -91.9%
CC50 (RXF 393; RXF 393, read-out: LC50): 47.9 µM
IC (TGI) (RXF 393; RXF 393, read-out: TGI): 22.4 µM
GI50 (MDA-MB-231/ATCC; MDA-MB-231): 5.25 µM
IC50 (MDA-MB-231/ATCC; MDA-MB-231): 16.2 µM
activity at 10 µM (MDA-MB-231/ATCC; MDA-MB-231, 48 h, read-out: Growth Percentage): -17.6%
CC50 (MDA-MB-231/ATCC; MDA-MB-231, read-out: LC50): 44.7 µM
IC (TGI) (MDA-MB-231/ATCC; MDA-MB-231, read-out: TGI): 17.8 µM
GI50 (SNB-75; Homo sapiens, SNB-75): 2290 nM
IC50 (SNB-75; Homo sapiens, SNB-75): 8.51 µM
CC50 (SNB-75; Homo sapiens, SNB-75, read-out: LC50): 27.5 µM
TGI (SNB-75; five-dose, CNS Cancer SNB-75): 7.41 µM
GI50 (BT-549; BT-549): 3.8 µM
IC50 (BT-549; BT-549): 13.5 µM
activity at 10 µM (BT-549; BT-549, 48 h, read-out: Growth Percentage): -14%
CC50 (BT-549; BT-549, read-out: LC50): 43.6 µM
IC (TGI) (BT-549; BT-549, read-out: TGI): 14.8 µM
GI50 (RPMI-8226; RPMI-8226): 2040 nM
activity at 10 µM (RPMI-8226; RPMI-8226, 48 h, read-out: Growth Percentage): 9.39%
IC50 (RPMI-8226; RPMI-8226, five-dose, Leukemia RPMI-8226): 3.72 µM
CC50 (RPMI-8226; RPMI-8226, read-out: LC50): > 100 µM
IC (TGI) (RPMI-8226; RPMI-8226, read-out: TGI): 6.31 µM
GI50 (TK-10; TK-10): 11.2 µM
IC50 (TK-10; TK-10): 22.9 µM
CC50 (TK-10; TK-10, read-out: LC50): 50.1 µM
IC (TGI) (TK-10; TK-10, read-out: TGI): 23.4 µM
GI50 (HCT-15; HCT-15): 2140 nM
IC50 (HCT-15; HCT-15): 3.47 µM
activity at 10 µM (HCT-15; HCT-15, 48 h, read-out: Growth Percentage): -36.4%
CC50 (HCT-15; HCT-15, read-out: LC50): 31.6 µM
IC (TGI) (HCT-15; HCT-15, read-out: TGI): 7.76 µM
GI50 (A549/ATCC; A549): 3.24 µM
IC50 (A549/ATCC; A549): 4.47 µM
activity at 10 µM (A549/ATCC; A549, 48 h, read-out: Growth Percentage): 19.5%
CC50 (A549/ATCC; A549, read-out: LC50): 55 µM
IC (TGI) (A549/ATCC; A549, read-out: TGI): 12 µM
GI50 (NCI-H522; NCI-H522): 5.01 µM
IC50 (NCI-H522; NCI-H522): 11.8 µM
activity at 10 µM (NCI-H522; NCI-H522, 48 h, read-out: Growth Percentage): -58.8%
CC50 (NCI-H522; NCI-H522, read-out: LC50): 46.8 µM
IC (TGI) (NCI-H522; NCI-H522, read-out: TGI): 17.8 µM
GI50 (NCI-H322M): 8.71 µM
IC50 (NCI-H322M): 17.4 µM
activity at 10 µM (NCI-H322M; [1]): 28.9%
CC50 (NCI-H322M; read-out: LC50): 50.1 µM
IC (TGI) (NCI-H322M; read-out: TGI): 21.9 µM
GI50 (CAKI-1; CAKI-1): 10.5 µM
IC50 (CAKI-1; CAKI-1): 20.4 µM
activity at 10 µM (CAKI-1; CAKI-1, 48 h, read-out: Growth Percentage): -56.5%
CC50 (CAKI-1; CAKI-1, read-out: LC50): 51.3 µM
IC (TGI) (CAKI-1; CAKI-1, read-out: TGI): 22.9 µM
GI50 (SW-620; SW-620): 3.39 µM
IC50 (SW-620; SW-620): 4.07 µM
activity at 10 µM (SW-620; SW-620, 48 h, read-out: Growth Percentage): -37.8%
CC50 (SW-620; SW-620, read-out: LC50): 45.7 µM
IC (TGI) (SW-620; SW-620, read-out: TGI): 11 µM
GI50 (HS 578T): 17.4 µM
IC50 (HS 578T): 67.6 µM
activity at 10 µM (HS 578T; [1]): 24.5%
CC50 (HS 578T; read-out: LC50): > 100 µM
IC (TGI) (HS 578T; read-out: TGI): 52.5 µM
GI50 (U251; U-251): 1740 nM
IC50 (U251; U-251): 3.09 µM
activity at 10 µM (U251; U-251, 48 h, read-out: Growth Percentage): -76%
CC50 (U251; U-251, read-out: LC50): 5.89 µM
IC (TGI) (U251; U-251, read-out: TGI): 3.24 µM
GI50 (SK-MEL-2; SK-MEL-2): 12.6 µM
IC50 (SK-MEL-2; SK-MEL-2): 26.9 µM
activity at 10 µM (SK-MEL-2; SK-MEL-2, 48 h, read-out: Growth Percentage): 16.9%
CC50 (SK-MEL-2; SK-MEL-2, read-out: LC50): 53.7 µM
IC (TGI) (SK-MEL-2; SK-MEL-2, read-out: TGI): 26.3 µM
GI50 (SF-539; SF-539): 2190 nM
IC50 (SF-539; SF-539): 3.98 µM
activity at 10 µM (SF-539; SF-539, 48 h, read-out: Growth Percentage): -85.9%
CC50 (SF-539; SF-539, read-out: LC50): 12.9 µM
IC (TGI) (SF-539; SF-539, read-out: TGI): 4.9 µM
GI50 (SR): 2750 nM
IC50 (SR): 3.89 µM
activity at 10 µM (SR; [1]): -11%
CC50 (SR; read-out: LC50): > 100 µM
IC (TGI) (SR; read-out: TGI): > 100 µM
GI50 (NCI-H226; NCI-H226): 11.2 µM
IC50 (NCI-H226; NCI-H226): 33.1 µM
activity at 10 µM (NCI-H226; NCI-H226, 48 h, read-out: Growth Percentage): -41.9%
CC50 (NCI-H226; NCI-H226, read-out: LC50): > 100 µM
IC (TGI) (NCI-H226; NCI-H226, read-out: TGI): 38 µM
GI50 (SNB-19; SNB-19): 4.9 µM
IC50 (SNB-19; SNB-19): 11.8 µM
activity at 10 µM (SNB-19; SNB-19, 48 h, read-out: Growth Percentage): 10.4%
CC50 (SNB-19; SNB-19, read-out: LC50): 41.7 µM
IC (TGI) (SNB-19; SNB-19, read-out: TGI): 17 µM
